In patent publication US20120309773A1, “HETEROCYCLIC COMPOUNDS AS JANUS KINASE INHIBITORS” (priority 2009, published 2012) one finds melting point data, which are given here for five compounds.

In general, melting point refers to the temperature, or range, at which the solid turns liquid.

For the compound `O=C(NC1CC1)c1cc(Nc2nc(N3CCCC3c3ccccn3)nc3ccoc23)[nH]n1` (centres unmarked) [Compound 12E, N-cyclopropyl-5-(2-(2-(pyridin-2-yl)pyrrolidin-1-yl)furo[3,2-d]pyrimidin-4-ylamino)-1H-pyrazole-3-carboxamide], the melting point was found to be 238.4 °C.
As to `O=C(NC1CCC1)c1cc(Nc2nc(N3CCCC3c3ccccn3)nc3ccoc23)[nH]n1` (centres unmarked) [Compound 13E, N-cyclobutyl-5-(2-(2-(pyridin-2-yl)pyrrolidin-1-yl)furo[3,2-d]pyrimidin-4-ylamino)-1H-pyrazole-3-carboxamide], the melting point is 250.1 °C.
For `O=C(NC1CCC1)c1cc(Nc2nc(N3CCCC3c3ccccn3)nc3ccoc23)n[nH]1` (centres unmarked) [Compound 14F, N-cyclobutyl-3-(2-(2-(pyridin-2-yl)pyrrolidin-1-yl)furo[3,2-d]pyrimidin-4-ylamino)-1H-pyrazole-5-carboxamide], the melting point came to 274.3 °C.
The compound `O=C(NC1CC1)c1cc(Nc2nc(N3CCC[C@H]3CO)nc3ccoc23)n[nH]1` [Compound 15C, (S)—N-cyclopropyl-3-(2-(2-(hydroxymethyl)pyrrolidin-1-yl)furo[3,2-d]pyrimidin-4-ylamino)-1H-pyrazole-5-carboxamide] yielded a melting point of 96.8 °C.
`CN(C)c1nc(Nc2cc(C(=O)NC3CCC3)n[nH]2)c2occc2n1` [Compound 19A, N-cyclobutyl-5-(2-(dimethylamino)furo[3,2-d]pyrimidin-4-ylamino)-1H-pyrazole-3-carboxamide] yielded a melting point of 270.8 °C.
